Values joined by “and” are separate entries in the source; they are usually repeats but may differ in a detail not shown here. Equal entries are not always repeated. Where two headings read alike, the source gives them in different places. Square brackets hold non-standard residues; d marks the D form. Peptide text beside a SMILES is read from it. Nle = CCCC[C@H](N)C(=O)O
Experiments:
CatL [1] = target: T1, CatL (Homo sapiens, UniProt P07711, T223A); assay: CatL inhibition assay (Ki), substrate Z-RR-AMC; assay type: biochemical; conditions: read-out: Residual activity (Vi/V0)
T1 construct: made in house; host or cells: Komagataella pastoris strain GS115
T1 sequence (P07711 114-333 T223A): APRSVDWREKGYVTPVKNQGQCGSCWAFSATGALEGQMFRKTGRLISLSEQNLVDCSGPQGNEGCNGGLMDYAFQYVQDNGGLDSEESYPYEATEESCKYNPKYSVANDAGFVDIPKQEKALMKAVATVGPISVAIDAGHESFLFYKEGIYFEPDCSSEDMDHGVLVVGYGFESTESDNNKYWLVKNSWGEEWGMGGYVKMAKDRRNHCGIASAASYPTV
Protocol: (§1) Experiments were performed in a solution of 50 mM sodium acetate, pH 4.0, 50 mM NaCl, 0.1% PEG 6000, and 5 mM DTT. Distinct assays with epoxide inhibitors at pH 6.0 were performed in 50 mM sodium phosphate buffer, 50 mM NaCl, 5 mM DTT, 0.1% PEG 6000, adjusted to pH 6.0.
(§2) M1000 pro plate reader (Tecan), the fluorescent peptide substrate Z-RR-AMC, and excitation and emission wavelengths of 370 and 460 nm, respectively.
(§3) At first, the inhibitor concentration span was optimized for each inhibitor and the assay buffer. For this initial screening, CatL (5 nM) was mixed with different concentrations of inhibitors (1 nM–50 μM) to determine the range of their inhibition. […] Reaction data were fitted to the […] in GraphPad Prism 9 software: Y = bottom + (top – bottom)/(1 + 10^∧((log IC50 – X) × HillSlope)); X is the log of dose or concentration, Y is the response (fluorescence signal), decreasing as X increases, top and bottom are the plateaus in the same units as Y, log IC50 same log units as X, HillSlope is the slope factor or called the Hill slope.

CatL [2] = conditions: cited from earlier work; for IC50: Table S1, SI reference list
[3] = tested on: SARS-CoV-2-GFP in Vero E6 cells; assay: microbe, parasite or virus in culture; assay type: cell-based
SARS-CoV-2 Mpro = SARS-CoV-2 Mpro (Severe acute respiratory syndrome coronavirus 2, UniProt P0DTD1); assay type: binding; conditions: 2:1 compound to protein
CatL [4] = target: T1, CatL; assay: NanoDSF, thermal stability of CatL; assay type: binding; conditions: for 2:1, Tm average (CatL): 2:1 compound to protein; for 20:1, Tm average (CatL): 20:1 compound to protein
in vitro = conditions: African green monkey
CatL [5] = target: T1, CatL; assay: CatL inactivation assay comparing epoxides at pH 6 and pH 4; assay type: biochemical
Protocol: as §1, §2, §3
Figure S7. Inactivation of CatL.
(1 picture or pasted object on this page, not shown here)

[6] = Cell viability assay (CellTiter-Blue); conditions: African green monkey
[7] = Severe acute respiratory syndrome coronavirus 2, Vero C1008, 24 h, read-out: EC50 (24 h)
[8] = Severe acute respiratory syndrome coronavirus 2, Vero C1008, 24 h, read-out: EC50 (after 24 h)
[9] = Severe acute respiratory syndrome coronavirus 2, Vero C1008, 48 h, read-out: EC50 (after 48 h)

## CC[C@H](C)[C@H](NS(=O)(=O)c1cccc2ccccc12)C(=O)N[C@H](C=O)Cc1c[nH]c2ccccc12 [CLI-IV, 1-Naphthalenesulfonyl-Ile-Trp-aldehyde]
CatL [1]; CLI-IV 0.280 nM
  remaining activity at 0.00028 µM: 92.4%
CatL [1]; CLI-IV 0.400 nM
  remaining activity at 0.0004 µM: 94.2%
CatL [1]; CLI-IV 0.580 nM
  remaining activity at 0.00058 µM: 89.3%
CatL [1]; CLI-IV 0.820 nM
  remaining activity at 0.00082 µM: 92.1%
CatL [1]; CLI-IV 1.680 nM
  remaining activity at 0.00168 µM: 78.4%
CatL [1]; CLI-IV 2.400 nM
  remaining activity at 0.0024 µM: 60.1%
CatL [1]; CLI-IV 3.430 nM
  remaining activity at 0.00343 µM: 40.4%
CatL [1]; CLI-IV 7.000 nM
  remaining activity at 0.007 µM: 11%
CatL [1]; CLI-IV 10.000 nM
  remaining activity at 0.01 µM: 5.5%
CatL [2]
  IC50: 1.9 nM
[3]; [7]
  EC50: 7.3 nM
[3]; [8]
  EC50: 7.26 nM
[3]; Severe acute respiratory syndrome coronavirus 2, Vero C1008, 48 h, read-out: EC50 (48 h)
  EC50: < 500 nM
[3]; [9]
  EC50: 411 nM
[3]; read-out: EC50 (24 h)
  EC50: < 10 nM
SARS-CoV-2 Mpro
  2:1, Tm average (Mpro): 54.6 °C

## CC(C)C[C@@H](C=O)NC(=O)[C@@H](NS(=O)(=O)c1ccc(F)cc1)C(C)C [CI-VI, 2-[(4-Fluorophenyl)sulfonylamino]-3-methyl-N-(4-methyl-1-oxopentan-2-yl)butanamide]
CatL [2]
  IC50: 1.6 nM
[3]; [7]
  EC50: 37.7 nM
[3]; [8]
  EC50: 37.7 nM
[3]; [9]
  EC50: 1330 nM
SARS-CoV-2 Mpro
  2:1, Tm average (Mpro): 54.5 °C
CatL [4]
  ΔTm [K] for CatL, 2:1 ratio: 15.2 ± 0.4 K
  2:1, Tm average (CatL): 78.3 °C
  20:1, Tm average (CatL): 81.4 °C
CatL [4]; pH 5
  ΔTm (for CatL), 2:1 compound to protein mixing ratio: 15,2 ± 0,4 °C and 15.2 °C
  ΔTm (for CatL), 20:1 compound to protein mixing ratio: 18,3 ± 0,1 °C and 18.3 °C

## CCCC[C@@H](C=O)NC(=O)[C@H](CC(C)C)NC(=O)[C@H](CC(C)C)NC(C)=O [MG101] (Ac-Leu-Leu-[Nle]-aldehyde)
In vitro
  viability at 48 h, 1e-05 µM: 103%
  viability at 48 h, 0.0001 µM: 102%
  viability at 48 h, 0.001 µM: 102%
  viability at 48 h, 0.01 µM: 102%
  viability at 48 h, 0.1 µM: 102%
  viability at 48 h, 1 µM: 101%
  viability at 48 h, 10 µM: 63%

## CC(C)C[C@H](NC(=O)OCc1ccccc1)C(=O)N[C@@H](CC1CCNC1=O)C(O)S(=O)(=O)O (some centres unmarked) [GC-376]
CatL [2]; read-out: Ki of CatL inhibition
  Ki: 0.26 nM

## CN(C)C(=O)C(Cc1ccccc1)NC(=O)[C@H]1O[C@@H]1C(=O)NCCc1ccccn1 (stereo partly drawn) [CLIK148, N-(L-3-trans-(2-pyridin-2-yl-ethylcarbamoyl)-oxirane-2-carbonyl)-L-Phe-dimethylamide]
[3]; [8]
  EC50: 282 nM
[3]; [9]
  EC50: 2780 nM
CatL [5]; CLIK148, pH 4, 0.44 µM (440 nM)
  Inactivation Rate: 0.0004006 per second and 0.0003231 per second and 0.0004659 per second
CatL [5]; CLIK148, pH 4, 0.99 µM (990 nM)
  Inactivation Rate: 0.0009097 per second and 0.0007894 per second and 0.0009283 per second
CatL [5]; CLIK148, pH 4, 1.48 µM (1480 nM)
  Inactivation Rate: 0.00137 per second and 0.001226 per second and 0.001313 per second
CatL [5]; CLIK148, pH 4, 2.22 µM (2220 nM)
  Inactivation Rate: 0.001929 per second and 0.00189 per second and 0.001923 per second
CatL [5]; CLIK148, pH 4, 3.33 µM (3330 nM)
  Inactivation Rate: 0.00288 per second and 0.002823 per second and 0.002796 per second
CatL [5]; CLIK148, pH 4, 5.00 µM (5000 nM)
  Inactivation Rate: 0.004395 per second and 0.004358 per second and 0.004463 per second
CatL [5]; CLIK148, pH 6, 0.44 µM (440 nM)
  Inactivation Rate: 0.000984 per second and 0.001005 per second and 0.00104 per second
CatL [5]; CLIK148, pH 6, 0.66 µM (660 nM)
  Inactivation Rate: 0.001629 per second and 0.001484 per second and 0.001519 per second
CatL [5]; CLIK148, pH 6, 0.99 µM (990 nM)
  Inactivation Rate: 0.002031 per second and 0.002049 per second and 0.002115 per second
CatL [5]; CLIK148, pH 6, 1.48 µM (1480 nM)
  Inactivation Rate: 0.002988 per second and 0.003179 per second and 0.003258 per second
CatL [5]; CLIK148, pH 6, 2.22 µM (2220 nM)
  Inactivation Rate: 0.004844 per second and 0.004638 per second and 0.004732 per second
CatL [5]; CLIK148, pH 6, 3.33 µM (3330 nM)
  Inactivation Rate: 0.00752 per second and 0.006254 per second and 0.007241 per second
CatL [5]; CLIK148, pH 6, 5.00 µM (5000 nM)
  Inactivation Rate: 0.01516 per second and 0.01256 per second and 0.01191 per second
[6]
  viability at 48 h, 1e-05 µM: 99.3%
  viability at 48 h, 0.0001 µM: 100%
  viability at 48 h, 0.001 µM: 98%
  viability at 48 h, 0.01 µM: 101%
  viability at 48 h, 0.1 µM: 98.3%
  viability at 48 h, 1 µM: 104%
  viability at 48 h, 10 µM: 110%
SARS-CoV-2 Mpro
  2:1, Tm average (Mpro): 54.8 °C
CatL [4]; 5 µM CatL, pH 5.0, 2% DMSO, 2:1
  ΔTm (for CatL), 2:1 compound to protein mixing ratio: 13,8 ± 0,1 °C and 13.8 °C
CatL [4]; 5 µM CatL, pH 5.0, 2% DMSO, 20:1
  ΔTm (for CatL), 20:1 compound to protein mixing ratio: 13,9 ± 0,2 °C and 13.9 °C
CatL [4]
  2:1, Tm average (CatL): 76.9 °C
  20:1, Tm average (CatL): 77 °C
CatL [4]; Table S1, 2:1 ratio
  ΔTm [K] for CatL, 2:1 ratio: 13.8 ± 0.1 K
